Measured values as given in PubChem BioAssay (NCI).
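Protocol summary: plate cells (96-well), add compound at 5 concentrations, incubate 48 h, interpolate endpoints linearly. TGI: concentration producing complete growth inhibition.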

Legend:
Assay in all cases: inhibition of tumour cell growth, NCI panel, 48 h
MDA-MB-231 breast = system: MDA-MB-231 breast
PC-3 prostate = system: PC-3 prostate
UACC-62 melanoma = system: UACC-62 melanoma
786-0 renal = system: 786-0 renal
HCT-116 colon = system: HCT-116 colon
SW-620 colon = system: SW-620 colon
NCI-H460 lung = system: NCI-H460 lung
K-562 leukemia = system: K-562 leukemia
U251 CNS = system: U251 CNS
NCI-H23 lung = system: NCI-H23 lung
SF-295 CNS = system: SF-295 CNS
COLO 205 colon = system: COLO 205 colon
SNB-75 CNS = system: SNB-75 CNS
BT-549 breast = system: BT-549 breast
SNB-19 CNS = system: SNB-19 CNS
SF-539 CNS = system: SF-539 CNS
HCC-2998 colon = system: HCC-2998 colon
SK-MEL-2 melanoma = system: SK-MEL-2 melanoma
MALME-3M melanoma = system: MALME-3M melanoma
KM12 colon = system: KM12 colon
DU-145 prostate = system: DU-145 prostate
OVCAR-5 ovarian = system: OVCAR-5 ovarian
MCF7 breast = system: MCF7 breast
MDA-MB-435 = system: MDA-MB-435
NCI-H226 lung = system: NCI-H226 lung
HL-60(TB) leukemia = system: HL-60(TB) leukemia
LOX IMVI melanoma = system: LOX IMVI melanoma
HS 578T breast = system: HS 578T breast
OVCAR-8 ovarian = system: OVCAR-8 ovarian
MDA-N = system: MDA-N
UACC-257 melanoma = system: UACC-257 melanoma
A549 NSCLC = system: A549 NSCLC
RPMI-8226 leukemia = system: RPMI-8226 leukemia
MOLT-4 leukemia = system: MOLT-4 leukemia
HCT-15 colon = system: HCT-15 colon
NCI/ADR-RES ovarian = system: NCI/ADR-RES ovarian
SK-OV-3 ovarian = system: SK-OV-3 ovarian
T-47D breast = system: T-47D breast
SN12C renal = system: SN12C renal
OVCAR-4 ovarian = system: OVCAR-4 ovarian
CCRF-CEM leukemia = system: CCRF-CEM leukemia
A498 renal = system: A498 renal
IGROV1 ovarian = system: IGROV1 ovarian
HT29 colon = system: HT29 colon
HOP-62 NSCLC = system: HOP-62 NSCLC
M14 melanoma = system: M14 melanoma
CAKI-1 renal = system: CAKI-1 renal
SF-268 CNS = system: SF-268 CNS
SK-MEL-5 melanoma = system: SK-MEL-5 melanoma
NCI-H522 lung = system: NCI-H522 lung
TK-10 renal = system: TK-10 renal
ACHN renal = system: ACHN renal
SK-MEL-28 melanoma = system: SK-MEL-28 melanoma
EKVX NSCLC = system: EKVX NSCLC
OVCAR-3 ovarian = system: OVCAR-3 ovarian
RXF 393 renal = system: RXF 393 renal

Measured: TGI

CC(=O)OC/C=C(\C)CCC(Br)C(C)(C)Br (stereo unspecified)
> 10 µM: all assays above
